This note sets out measurements from US8058475B2, “Substituted cyclohexylmethyl compounds” (Gruenenthal GmbH, priority 2005, dated 2011).

Where two headings read alike, the source gives them in different places.

In the assay the target is human μ-opiate receptor (Homo sapiens, UniProt P35372). In words: Affinity for the human μ-opiate receptor ([3H]-naloxone displacement, SPA, CHO-K1 membrane preparation). It is filed as binding. As to conditions: for inhibition at 1 µM: read-out: μ-Opioid receptor, % inhibition [1 μM]; for Ki: read-out: μ-Opioid receptor, Ki.
Where [1] appears, read: 1 μM test substance, inhibition of specific [3H]-naloxone binding.

Sequence of human μ-opiate receptor (P35372 whole entry): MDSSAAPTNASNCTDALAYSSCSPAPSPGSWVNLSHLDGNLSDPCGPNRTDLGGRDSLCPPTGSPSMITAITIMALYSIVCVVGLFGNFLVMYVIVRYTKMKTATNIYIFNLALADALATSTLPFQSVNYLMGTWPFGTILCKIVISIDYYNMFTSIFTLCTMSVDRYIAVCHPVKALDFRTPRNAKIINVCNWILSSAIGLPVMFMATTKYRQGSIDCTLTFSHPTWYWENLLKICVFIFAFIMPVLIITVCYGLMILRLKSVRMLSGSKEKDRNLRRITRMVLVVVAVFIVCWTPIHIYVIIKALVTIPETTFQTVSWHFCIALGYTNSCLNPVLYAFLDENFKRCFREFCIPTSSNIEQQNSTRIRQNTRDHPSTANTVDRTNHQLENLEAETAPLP

In the case of `CN(C)C(c1cccc(F)c1)C1CCC(O)(Cc2ccccc2)CC1` (stereo not drawn) [compound 152, 1-benzyl-4-[dimethylamino-(3-fluoro-phenyl)-methyl]-cyclohexanol], under setting [1], the inhibition at 1 µM came to 63%.
Turning to `COc1c(C(=O)NCCC2CCC(C(CCc3ccccc3)N(C)C)CC2)csc1Cl` (stereo not drawn) [compound 476, 5-chloro-4-methoxy-thiophene-3-carboxylic acid {2-[4-(1-dimethylamino-3-phenyl-propyl)-cyclohexyl]-ethyl}-amide], the inhibition at 1 µM was determined as 87% and the Ki was found to be 84 nM.
The matching figures for `CN(C)C(c1ccccc1)C1CCC(NC(=O)c2cccs2)CC1` (single isomer, unassigned) [compound 245, thiophene-2-carboxylic acid [4-(dimethylamino-phenyl-methyl)-cyclohexyl]-amide]: 82% and 66 nM.
In the case of `CCC(C(=O)NCC1CCC(C(c2ccccc2)N(C)C)CC1)c1ccccc1` (stereo not drawn) [compound 321, N-[4-(dimethylamino-phenyl-methyl)-cyclohexylmethyl]-2-phenyl-butyramide], the inhibition at 1 µM stood at 95% and the inhibitory constant (Ki) is 22 nM.
The matching figures for `CN(C)C(c1ccc(F)cc1)C1CCC(CCNC(=O)c2ccccc2F)CC1` (stereo not drawn) [compound 427, N-(2-{4-[dimethylamino-(4-fluoro-phenyl)-methyl]-cyclohexyl}-ethyl)-2-fluoro-benzamide]: 84% and 40 nM.
Regarding `Cc1cc(C(=O)NCC2CCC(C(c3ccccc3)N(C)C)CC2)no1` (stereo not drawn) [compound 379, 5-methyl-isoxazole-3-carboxylic acid [4-(dimethylamino-phenyl-methyl)-cyclohexylmethyl]-amide], the inhibition at 1 µM was 83%.
With `CN(C)C(c1ccc(Cl)cc1)C1CCC(CCNC(=O)c2cccc(Cl)c2)CC1` (stereo not drawn) [compound 399, 3-chloro-N-(2-{4-[(4-chloro-phenyl)-dimethylamino-methyl]-cyclohexyl}-ethyl)-benzamide], the inhibition at 1 µM is 80% and the Ki was 110 nM.
Consider `COc1c(C(=O)NC2CCC(C(c3ccccc3)N(C)C)CC2)csc1Cl` (stereo not drawn) [compound 188, 5-chloro-4-methoxy-thiophene-3-carboxylic acid [4-(dimethylamino-phenyl-methyl)-cyclohexyl]-amide], for which the inhibition at 1 µM was determined as 100% and the Ki turned out to be 5.2 nM.
With `Cc1ccc(Oc2ncccc2C(=O)NCC2CCC(C(c3cccc(F)c3)N(C)C)CC2)cc1` (stereo not drawn) [compound 337, N-{4-[dimethylamino-(3-fluoro-phenyl)-methyl]-cyclohexylmethyl}-2-p-tolyloxy-nicotinamide], the inhibition at 1 µM is 92%.
`CN(C)C(c1ccccc1)C1CCC(CNC(=O)Cc2ccc(Cl)cc2)CC1` (stereo not drawn) [compound 324, 2-(4-chloro-phenyl)-N-[4-(dimethylamino-phenyl-methyl)-cyclohexylmethyl]-acetamide]: the inhibition at 1 µM was found to be 95% and the Ki is 22 nM.
On to `CN(C)C(c1cccs1)C1CCC(CCNC(=O)c2cccc(Cl)c2)CC1` (stereo not drawn) [compound 424, 3-chloro-N-{2-[4-(dimethylamino-thiophen-2-yl-methyl)-cyclohexyl]-ethyl}-benzamide], for which the inhibition at 1 µM is 99% and the inhibition constant Ki was found to be 2.7 nM.
As to `CN(C)C(c1ccc(Cl)cc1)C1CCC(CNC(=O)c2cccc(C(F)(F)F)c2)CC1` (stereo not drawn) [compound 369, N-{4-[(4-chloro-phenyl)-dimethylamino-methyl]-cyclohexylmethyl}-3-trifluoromethyl-benzamide], the inhibition at 1 µM was determined as 84% and the inhibition constant (Ki) is 68 nM.
With `CN(C)C(CCc1ccccc1)C1CCC(CNC(=O)c2csc3ccccc23)CC1` (stereo not drawn) [compound 380, benzo[b]thiophene-3-carboxylic acid [4-(1-dimethylamino-3-phenyl-propyl)-cyclohexylmethyl]-amide], the inhibition at 1 µM is 83% and the Ki came to 95 nM.
The matching figures for `CN(C)C(c1ccccc1)C1CCC(CCNC(=O)c2ccc(F)cc2)CC1` (stereo not drawn) [compound 407, N-{2-[4-(dimethylamino-phenyl-methyl)-cyclohexyl]-ethyl}-4-fluoro-benzamide]: 87% and 48 nM.
Regarding `COc1c(C(=O)NC2CCC(C(c3cccs3)N(C)C)CC2)csc1Cl` (stereo not drawn) [compound 195, 5-chloro-4-methoxy-thiophene-3-carboxylic acid [4-(dimethylamino-thiophen-2-yl-methyl)-cyclohexyl]-amide], the inhibition at 1 µM stood at 96% and the inhibition constant (Ki) is 15 nM.
The matching figures for `CN(C)C(c1ccccc1)C1CCC(CNC(=O)c2csc3ccccc23)CC1` (stereo not drawn) [compound 292, benzo[b]thiophene-3-carboxylic acid [4-(dimethylamino-phenyl-methyl)-cyclohexylmethyl]-amide]: 102% and 1.3 nM.
The matching figures for `CN(C)C(c1ccccc1)C1CCC(CNC(=O)C2(c3ccc(Cl)cc3)CCCC2)CC1` (stereo not drawn) [compound 318, 1-(4-chloro-phenyl)-cyclopentane-carboxylic acid [4-(dimethylamino-phenyl-methyl)-cyclohexylmethyl]-amide]: 95% and 23 nM.
In the case of `CN(C)C(c1ccccc1)C1CCC(NC(=O)c2cccc([N+](=O)[O-])c2)CC1` (stereo not drawn) [compound 275, N-[4-(dimethylamino-phenyl-methyl)-cyclohexyl]-3-nitro-benzamide], the inhibition at 1 µM worked out at 74% and the Ki came to 100 nM.
The matching figures for `CN(C)C(c1cccs1)C1CCC(CCNC(=O)c2cc(F)c(Cl)cc2Cl)CC1` (stereo not drawn) [compound 440, 2,4-dichloro-N-{2-[4-(dimethylamino-thiophen-2-yl-methyl)-cyclohexyl]-ethyl}-5-fluoro-benzamide]: 95% and 15 nM.
The corresponding values for `CN(C)C(c1ccccc1)C1CCC(NC(=O)c2cccc(C(F)(F)F)c2)CC1` (stereo not drawn) [compound 203, N-[4-(dimethylamino-phenyl-methyl)-cyclohexyl]-3-trifluoromethyl-benzamide] are 94% and 51 nM.
The corresponding values for `CN(C)C(c1ccc(F)cc1)C1CCC(CNC(=O)C2(c3ccc(Cl)cc3)CCCC2)CC1` (stereo not drawn) [compound 370, 1-(4-chloro-phenyl)-cyclopentane-carboxylic acid {4-[dimethylamino-(4-fluoro-phenyl)-methyl]-cyclohexylmethyl}-amide] are 84% and 81 nM.
As for `CN(C)C(c1cccs1)C1CCC(CNC(=O)Cc2ccc(Cl)cc2)CC1` (stereo not drawn) [compound 311, 2-(4-chloro-phenyl)-N-[4-(dimethylamino-thiophen-2-yl-methyl)-cyclohexyl-methyl]-acetamide], the inhibition at 1 µM is 98% and the inhibition constant (Ki) was determined as 11 nM.
As for `CCn1nc(C)c(Br)c1C(=O)NC1CCC(C(c2cccs2)N(C)C)CC1` (stereo not drawn) [compound 260, 4-bromo-2-ethyl-5-methyl-2H-pyrazole-3-carboxylic acid [4-(dimethylamino-thiophen-2-yl-methyl)-cyclohexyl]-amide], the inhibition at 1 µM came out at 78%.
With `CN(C)C(c1ccccc1)C1CCC(NC(=O)CC(C)(C)C)CC1` (single isomer, unassigned) [compound 228, N-[4-(dimethylamino-phenyl-methyl)-cyclohexyl]-3,3-dimethyl-butyramide], the inhibition at 1 µM turned out to be 87% and the Ki amounted to 19 nM.
For the compound `Cc1oc(-c2ccccc2)cc1C(=O)NCC1CCC(C(c2cccc(F)c2)N(C)C)CC1` (stereo not drawn) [compound 373, 2-methyl-5-phenyl-furan-3-carboxylic acid {4-[dimethylamino-(3-fluoro-phenyl)-methyl]-cyclohexylmethyl}-amide], the inhibitory constant (Ki) is 61 nM. Moreover, the “μ-Opioid receptor, % inhibition [1 μM]” value (1 µM) is 84%.
On to `CN(C)C(c1ccccc1)C1CCC(CNC(=O)c2ccc(F)c(F)c2)CC1` (single isomer, unassigned) [compound 294, N-[4-(dimethylamino-phenyl-methyl)-cyclohexylmethyl]-3,4-difluoro-benzamide], for which the inhibition at 1 µM came to 101% and the Ki stood at 8.3 nM.
For `CN(C)C(c1ccc(Cl)cc1)C1CCC(O)(c2cc(F)cc(F)c2)CC1` (stereo not drawn) [compound 166, 4-[(4-chloro-phenyl)-dimethylamino-methyl]-1-(3,5-difluoro-phenyl)-cyclohexanol], under setting [1], the inhibition at 1 µM is 62%.
On to `CN(C)C(c1ccccc1)C1CCC(NC(=O)C2CCCC2)CC1` (stereo not drawn) [compound 288, cyclopentanecarboxylic acid [4-(dimethylamino-phenyl-methyl)-cyclohexyl]-amide], for which the inhibition at 1 µM stood at 70% and the Ki turned out to be 160 nM.
Consider `COc1cccc(CC(=O)NCCC2CCC(C(c3cccc(F)c3)N(C)C)CC2)c1` (stereo not drawn) [compound 453, N-(2-{4-[dimethylamino-(3-fluoro-phenyl)-methyl]-cyclohexyl}-ethyl)-2-(3-methoxy-phenyl)-acetamide], for which the inhibition at 1 µM worked out at 83% and the Ki stood at 43 nM.
The corresponding values for `CN(C)C(c1ccccc1)C1CCC(NC(=O)COc2ccc(Cl)cc2)CC1` (stereo not drawn) [compound 284, 2-(4-chloro-phenoxy)-N-[4-(dimethylamino-phenyl-methyl)-cyclohexyl]-acetamide] are 72% and 63 nM.
Consider `CC(Oc1ccccc1)C(=O)NCC1CCC(C(c2cccc(F)c2)N(C)C)CC1` (single isomer, unassigned) [compound 341, N-{4-[dimethylamino-(3-fluoro-phenyl)-methyl]-cyclohexylmethyl}-2-phenoxy-propionamide], for which the inhibitory constant (Ki) stood at 13 nM.
Consider `CN(C)C(c1ccccc1)C1CCC(NC(=O)c2cccc(Br)c2)CC1` (stereo not drawn) [compound 197, 3-bromo-N-[4-(dimethylamino-phenyl-methyl)-cyclohexyl]-benzamide], for which the inhibition at 1 µM came to 96% and the Ki stood at 16 nM.
The corresponding values for `CN(C)C(c1ccccc1)C1CCC(CNC(=O)c2cc(Cl)cc(Cl)c2)CC1` (stereo not drawn) [compound 329, 3,5-dichloro-N-[4-(dimethylamino-phenyl-methyl)-cyclohexylmethyl]-benzamide] are 94% and 35 nM.
